In ChEMBL document CHEMBL4270599, “Synthesis of a 3'-C-ethynyl-β-d-ribofuranose purine nucleoside library: Discovery of C7-deazapurine analogs as potent antiproliferative nucleosides” (Eur J Med Chem, 2018):
Activity calls are given as the source filed them. No cut-off for these calls is given here.

How the values were obtained:
LOX IMVI = test: Growth inhibition of human LOXIMVI cells assessed as cell growth at 10^-6 M incubated for 48 hrs by sulforhodamine B assay relative to control; assay type: functional; settings: read-out: Activity
EKVX = test: Growth inhibition of human EKVX cells assessed as cell growth at 10^-5 M incubated for 48 hrs by sulforhodamine B assay relative to control; assay type: functional; settings: read-out: Activity
NCI-H522 [1] = test: Growth inhibition of human NCI-H522 cells assessed as cell growth at 10^-5 M incubated for 48 hrs by sulforhodamine B assay relative to control; assay type: functional; settings: NCI-H522, 48 h, read-out: Activity
NCI-H522 [2] = test: Growth inhibition of human NCI-H522 cells assessed as cell growth at 10^-4 M incubated for 48 hrs by sulforhodamine B assay relative to control; assay type: functional; settings: NCI-H522, 48 h, read-out: Activity
Homo sapiens [3] = test: Antitumor activity against human MDA-MB-231-LM2 cells xenografted in SCID mouse assessed as inhibition of lung metastasis at 0.3 mg/kg, it 3 times a week for 2 consecutive weeks starting 10 days post inoculation measured at day 34; assay type: functional, organism-based
Homo sapiens [4] = test: Antitumor activity against human MDA-MB-231-LM2 cells xenografted in SCID mouse assessed as decrease in tumor size at 0.3 mg/kg, it 3 times a week for 2 consecutive weeks starting 10 days post inoculation; assay type: functional, organism-based
[5] = Antitumor activity against human MDA-MB-231-LM2 cells xenografted in SCID mouse assessed as tumor weight at 0.3 mg/kg, it 3 times a week for 2 consecutive weeks starting 10 days post inoculation measured at day 35 (reference value: 551 +/- 74 mg); assay type: functional

Q: With `C#C[C@@]1(O)[C@@H](CO)O[C@@H](n2ccc3c(N)ncnc32)[C@@H]1O` as the compound, how does the growth at 1 µM (LOX IMVI) read?
A: The growth at 1 µM was 40%.

Q: What about the growth at 10 µM (EKVX) of the same compound?
A: Its growth at 10 µM is -24%.

Q: And the growth at 10 µM (NCI-H522 [1])?
A: The growth at 10 µM was -21%.

Q: What about the growth at 100 µM (NCI-H522 [2]) of the same compound?
A: Its growth at 100 µM is -42%.

Q: For `C#C[C@@]1(O)[C@@H](CO)O[C@@H](n2cc(F)c3c(N)ncnc32)[C@@H]1O`, which growth at 1 µM (LOX IMVI) is on record?
A: The growth at 1 µM was 4%.

Q: And the growth at 10 µM (EKVX)?
A: Its growth at 10 µM is 1%.

Q: What about the growth at 10 µM (NCI-H522 [1]) of the same compound?
A: The growth at 10 µM was -24%.

Q: What about the growth at 100 µM (NCI-H522 [2]) of the same compound?
A: The growth at 100 µM was -40%.

Q: With `C#C[C@@]1(O)[C@@H](CO)O[C@@H](n2cc(Cl)c3c(N)ncnc32)[C@@H]1O` as the compound, how does the Activity (Homo sapiens [3]) read?
A: The Activity was “Active”.

Q: What about the Activity (Homo sapiens [4]) of the same compound?
A: Its Activity is “Active”.

Q: And the Activity [5]?
A: Its Activity is 241 mg.
